From patent EP1140984B1, “SELECTIVE INHIBITORS OF MMP-12” (Aventis Pharmaceuticals Inc., priority 1998, dated 2000)
Structures can show the parent of a compound that is named as a salt.

What was measured:
MMP-1 = target: T1, MMP-1 (Homo sapiens, UniProt P03956); test: Determination of inhibition constant (Ki) for MMP-1, fluorogenic substrate assay; type: biochemical; details: substrate Mca-Pro-Leu-Gly-Leu-Dpa-Ala-Arg-NH2, 37°C, pH 7.6, [S] = 1 µM, [MMP-1] = 0.8 nM
T1 construct: The active MMP-1 was obtained by treatment of proMMP-1 with trypsin; endogenous in cells; host or cells: human rheumatoid synovial fibroblasts stimulated with macrophage-conditioned medium
T1 sequence (P03956 100-469): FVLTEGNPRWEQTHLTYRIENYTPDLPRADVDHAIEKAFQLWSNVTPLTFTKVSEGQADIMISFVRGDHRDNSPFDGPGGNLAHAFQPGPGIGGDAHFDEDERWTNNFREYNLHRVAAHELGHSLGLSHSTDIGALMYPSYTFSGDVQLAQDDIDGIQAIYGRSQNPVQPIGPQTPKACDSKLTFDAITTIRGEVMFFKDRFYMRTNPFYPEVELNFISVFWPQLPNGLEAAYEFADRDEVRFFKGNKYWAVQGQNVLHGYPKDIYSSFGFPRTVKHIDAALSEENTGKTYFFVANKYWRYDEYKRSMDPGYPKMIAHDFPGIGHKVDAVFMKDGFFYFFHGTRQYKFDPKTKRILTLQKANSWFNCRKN
Description: ProMMP-1 (EC 3.4.24.7; interstitial collagenase) was purified from culture medium of human rheumatoid synovial fibroblasts stimulated with macrophage-conditioned medium according to Okada, Y. et al., J. Biol. Chem. 261, 14245-14255 (1986). The active MMP-1 was obtained by treatment of proMMP-1 with trypsin (5 µg/mL) at 37°C for 30 minutes, followed by addition of soybean trypsin inhibitor (50 µg/mL).
The activated MMP-1 is assayed using a fluorogenic substrate, Mca-Pro-Leu-Gly-Leu-Dpa-Ala-Arg-NH2, Knight, C.G. et al., FEBS Lett. 296, 263-266 (1992), at 37°C in 2.0 mL of assay buffer containing 50 mM Tris, pH 7.6, 0.2 M sodium chloride, 50 mM calcium chloride, and 0.02% Brij-35. The increase in fluorescence due to cleavage of Gly-Leu peptide bond by MMP-3 was monitored with Perkin-Elmer LS50B Fluorimeter (λex 328 nm, λem 393 nm, excitation slit 2.5, emission slit 10). Substrate and inhibitor stock solutions were made in DMF. For determination of Ki values for MMP-1 inhibitors, a series of intermediate inhibitor solutions were prepared in DMF and 1 or 2 µL of the diluted inhibitor solution was mixed with 1 µL of 2 mM substrate solution in DMF in a quartz cuvette containing 2 mL of assay buffer. The enzyme (10 µL of 0.2 µM MMP-3 dilution in assay buffer) was added at the last to start the reaction. For routine measurement of a Ki value for a reversible, competitive inhibitor, the initial rates in the presence of at least four inhibitor concentrations (two concentrations above K; and two concentrations below Ki) were measured using [S] = 1 µM (<< Km) and [MMP-1] = 0.8 nM. Under these conditions, the measured Ki, app is close to true Ki.
The Ki for a competitive inhibitor is calculated using: v0/vi = (1 + [I]/Ki,app) and Ki = Ki,app/(1 + [S]/Km), where v0 is the initial rate in the absence of inhibitor, vi is the initial rate in the presence of inhibitor at the concentration of [I], [S] is the substrate concentration, and Km is the Michaelis constant. If slow binding is observed (i.e. if the approach to the binding equilibrium is slow), the final steady-state rate rather than the initial rate is taken as vi.

MMP-2 = target: T2, MMP-2 (Homo sapiens, UniProt P08253); test: Determination of inhibition constant (Ki) for MMP-2, fluorogenic substrate assay; type: biochemical; details: substrate Mca-Pro-Leu-Gly-Leu-Dpa-Ala-Arg-NH2, 37°C, pH 7.6, [S] = 1 µM, [MMP-2] = 0.4 nM
T2 construct: made in house; host or cells: Pichia pastoris (strains KM71 / SMD1168, clone 24S; vector pHIL-D2)
T2 sequence (P08253 110-660): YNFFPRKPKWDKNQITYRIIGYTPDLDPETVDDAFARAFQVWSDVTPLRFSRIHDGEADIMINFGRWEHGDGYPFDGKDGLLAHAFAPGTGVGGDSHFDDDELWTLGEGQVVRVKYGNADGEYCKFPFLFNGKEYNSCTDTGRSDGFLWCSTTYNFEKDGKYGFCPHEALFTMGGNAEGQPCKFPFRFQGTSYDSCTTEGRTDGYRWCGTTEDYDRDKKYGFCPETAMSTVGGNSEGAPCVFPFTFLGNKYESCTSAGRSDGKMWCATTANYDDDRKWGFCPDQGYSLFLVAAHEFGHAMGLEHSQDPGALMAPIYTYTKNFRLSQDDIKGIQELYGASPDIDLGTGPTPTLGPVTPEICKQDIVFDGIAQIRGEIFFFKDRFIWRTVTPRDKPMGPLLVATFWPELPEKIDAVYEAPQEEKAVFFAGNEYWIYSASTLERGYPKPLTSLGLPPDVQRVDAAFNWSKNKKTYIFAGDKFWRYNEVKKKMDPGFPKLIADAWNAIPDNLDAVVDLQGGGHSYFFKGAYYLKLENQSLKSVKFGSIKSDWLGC
Description: Recombinant MMP-2 was purified from the fermentation broth of yeast Pichia pastoris that carries the integrated MMP-2 gene into its chromosome. In brief, the full-length cDNA for MMP-2 was obtained by reverse transcription of RNA from human melanoma A375M cell line by the reverse transcriptase polymerase chain reaction (RT-PCR) using sequence specific oligonucleotides. The nucleotide sequence was confirmed by Taq cycle sequencing. The cDNA was ligated into the Pichia pastoris expression vector pHIL-D2 in such a way that the expression of pro-MMP-2 is under the control of the methanol inducible alcohol oxidase promoter. The expression construct was digested with either SalI or NsiI and used to transform the Pichia pastoris strains KM71 and SMD1168. A large-scale culture of a selected clone designated 24S was performed in a high cell density fermentor and the recombinant MMP-2 was purified from the culture supernatant by gelatin-sepharose 4B (Pharmacia). The enzyme is sufficiently pure at this stage for routine measurement of inhibition. If desired, however, the enzyme may be further purified by AcA 44 gel filtration (Spectra).
The active MMP-2 was obtained by activation of proMMP-2 at 37°C for 1 h with 4-aminophenylmercuric acetate which was then removed by a Sephadex G-50 spin column. The enzyme is assayed using a fluorogenic substrate, Mca-Pro-Leu-Gly-Leu-Dpa-Ala-Arg-NH2, at 37°C in 2.0 mL of assay buffer containing 50 mM Tris, pH 7.6, 0.2 M sodium chloride, 50 mM calcium chloride, 0.02% Brij-35, and 50 µM β-mercaptoethanol. The increase in fluorescence is monitored (λex 328 nm, λem 393 nm). Substrate and inhibitor stock solutions are made in DMF. The enzyme is added at the last to start the reaction. For routine measurement of a Ki value for a reversible, competitive inhibitor, the initial rates in the presence of at least four inhibitor concentrations (two inhibitor concentrations above Ki and two below Ki) are measured using [S] = 1 µM (<<Km) and [MMP-2] = 0.4 nM. Under these conditions, the measured Ki, app is close to true Ki.

Row | SMILES | Ki (MMP-1) [nM] | Ki (MMP-2) [nM]
1 | CC(C)C[C@H](NC(=O)C(S)C(C)C)C(=O)N[C@@H](Cc1ccccc1)C(=O)O (stereo in doubt) [Example 3, (S)-2-Mercapto-3-methylbutyroyl-(L)-leucyl-(L)-phenylalanine] | 518 | 784
2 | CCCC(S)C(=O)N[C@@H](CCc1ccccc1)C(=O)N[C@@H](Cc1ccccc1)C(=O)O (stereo partly shown) [Example 1, 2-Mercapto-pentanoyl-(L)-homo-phenylalanyl-(L)-phenylalanine] | 5800 | 1800
3 | CC(C)[C@H](S)C(=O)N[C@@H](CCc1ccccc1)C(=O)N[C@@H](Cc1ccccc1)C(=O)O [Example 2, (S)-2-Mercapto-3-methylbutyroyl-(L)-homo-phenylalanyl-(L)-phenylalanine] | 5110 | 731
4 | CCCC(S)C(=O)N[C@@H](CCc1ccccc1)C(=O)N[C@@H](Cc1ccccc1)C(=O)NC (stereo partly drawn) [Example 6, (S)-2-Mercaptopentanoyl-(L)-homo-phenylalanyl-(L)-phenylalanine N-methyl amide] | 360 | –
5 | CNC(=O)[C@H](Cc1ccccc1)NC(=O)[C@H](CCc1ccccc1)NC(=O)[C@@H](S)C(C)C [Example 7, (S)-2-Mercapto-3-methylbutyroyl-(L)-homo-phenylalanyl-(L)-phenylalanine N-methyl amide] | 465 | 3.3

Continued, values first:

Row | Ki (MMP-1) [nM] | Ki (MMP-2) [nM] | SMILES
6 | 153 | 798 | CSCC[C@H](NC(=O)C(S)C(C)C)C(=O)N[C@@H](Cc1ccccc1)C(=O)O (stereo in doubt) [Example 4, (S)-2-Mercapto-3-methylbutyroyl-(L)-methionyl-(L)-phenylalanine]
7 | 3910 | 1740 | CC(C)C(S)C(=O)N[C@@H](CCCCN)C(=O)N[C@@H](Cc1ccccc1)C(=O)O (stereo in doubt) [Example 5, (S)-2-Mercapto-3-methylbutyroyl-(L)-lysyl-(L)-phenylalanine trifluoroacetic acid salt]
